Each structure is given as a SMILES string.

The text below walks through data of patent US20190233287A1, “Methods To Prepare Haloamines Using At Least One Solid Reactant And Products Made Therefrom” (Buckman Laboratories International, Inc., priority 2018, published 2019).

The conditions of data set [1]: weak acid; cited from earlier work.
Data set [2] in a line: Chlorine content, MCA content and pH of solutions, measured at once and again after 1 hour. The class given is physicochemical. Particulars: 0.1 wt % Dantochlor aqueous solution, pH 11.2, measured instantly.
Protocol: In this experiment the chlorine-releaser was granular Dantochlor (DCDMH), and the ammonium source was BUSPERSE 2454 (already in the form of an aqueous ammonium sulfate). A one liter aqueous solution containing 0.1 wt % Dantochlor was prepared. This aqueous solution was adjusted to a pH of 11.2 using NaOH (50%).
A molar equivalent amount of BUSPERSE 2454 was ±0.7 ml for a one liter solution. A 30% molar overdosage was used and thus, 1 ml of BUSPERSE 2454 was added to the aqueous solution of Dantochlor.
Data set [3] is described as follows: Chlorate ion concentration by Ion Chromatography. The class given is physicochemical. To be noted: aqueous solutions of the Dantochlor product (1.5-72 ppm); detection limit 0.5 ppm. The procedure: The chlorate ion concentration was also analyzed for various aqueous solutions of the Dantochlor product (1.5-72 ppm); chlorate ion was not detected above the method's detection limit of 0.5 ppm.

Take `OCl` [HOCl, hypochlorous acid]: the pKa (in general, the negative logarithm of the acid dissociation constant) in data set [1] is recorded as 7.5.
On to `CC1(C)C(=O)N(Cl)C(=O)N1Cl` [Dantochlor, dichlorodimethylhydantoin], for which, in data set [2], the “Free Cl2” value was found to be 274 ppm Cl2 and the “Total Cl2” value came out at 600 ppm Cl2. The compound further showed a chlorate ion concentration in data set [3] of less than 0.5 ppm.
